# Assays:
# Test in all cases: relative viability (nuclei count vs DMSO), 5 days (fraction); higher = more cells survive
# BEN = tested on: BEN
# Summary of the method: (§1)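 After 5 days of treatment, lung cancer cells in 1536-well plates were fixed and stained in a single step (final 0.05% Triton X-100, 1% formaldehyde, 1 ug/ml Hoechst) and their nuclei counted on 4× images. Treatment had been applied by pin tool the day after seeding as one drug alone or as a fixed anchor-drug dose with five library-drug doses (not always all listed) in √10 steps. Relative viability is the nuclei count of treated wells divided by that of vehicle wells, and values are medians of duplicate plates.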
# LK-2 = tested on: LK-2
# Summary of the method: as §1
# ChaGo-K-1 = tested on: ChaGo-K-1
# Summary of the method: as §1
# PC-3 [JPC-3] = tested on: PC-3 [JPC-3]
# Summary of the method: as §1
# NCI-H1355 = tested on: NCI-H1355
# Summary of the method: as §1
# NCI-H2342 = tested on: NCI-H2342
# Summary of the method: as §1
# NCI-H2087 = tested on: NCI-H2087
# Summary of the method: as §1
# NCI-H1651 = tested on: NCI-H1651
# Summary of the method: as §1
# NCI-H838 = tested on: NCI-H838
# Summary of the method: as §1
# NCI-H661 = tested on: NCI-H661
# Summary of the method: as §1
# LC-2-ad = tested on: LC-2-ad
# Summary of the method: as §1
# SK-MES-1 = tested on: SK-MES-1
# Summary of the method: as §1
# NCI-H1944 = tested on: NCI-H1944
# Summary of the method: as §1
# HCC-78 = tested on: HCC-78
# Summary of the method: as §1
# NCI-H650 = tested on: NCI-H650
# Summary of the method: as §1
# NCI-H1666 = tested on: NCI-H1666
# Summary of the method: as §1
# LCLC-97TM1 = tested on: LCLC-97TM1
# Summary of the method: as §1
# NCI-H1975 = tested on: NCI-H1975
# Summary of the method: as §1
# LU99A = tested on: LU99A
# Summary of the method: as §1
# LXF-289 = tested on: LXF-289
# Summary of the method: as §1
# NCI-H358 = tested on: NCI-H358
# Summary of the method: as §1
# NCI-H596 = tested on: NCI-H596
# Summary of the method: as §1
compound,measurement,setting,value
CCN(CC)CCCCNc1ncc2cc(-c3cc(OC)cc(OC)c3)c(NC(=O)NC(C)(C)C)nc2n1 + N=C(N)NC(=N)NCCc1ccccc1 [Phenformin] (partner 250 µM),relative viability,BEN; first compound 0.01 µM,0.261
same,relative viability,BEN; first compound 0.03162 µM,0.236
same,relative viability,BEN; first compound 0.1 µM,0.278
same,relative viability,BEN; first compound 0.3162 µM,0.464
same,relative viability,BEN; first compound 1 µM,0.244
same,relative viability,LK-2; first compound 0.01 µM,0.638
same,relative viability,LK-2; first compound 0.03162 µM,0.289
same,relative viability,LK-2; first compound 0.1 µM,0.239
same,relative viability,LK-2; first compound 0.3162 µM,0.304
same,relative viability,LK-2; first compound 1 µM,0.223
same,relative viability,ChaGo-K-1; first compound 0.01 µM,0.541
same,relative viability,ChaGo-K-1; first compound 0.03162 µM,0.45
same,relative viability,ChaGo-K-1; first compound 0.1 µM,0.585
same,relative viability,ChaGo-K-1; first compound 0.3162 µM,0.47
same,relative viability,ChaGo-K-1; first compound 1 µM,0.474
same,relative viability,PC-3 [JPC-3]; first compound 0.01 µM,0.485
same,relative viability,PC-3 [JPC-3]; first compound 0.03162 µM,0.484
same,relative viability,PC-3 [JPC-3]; first compound 0.1 µM,0.487
same,relative viability,PC-3 [JPC-3]; first compound 0.3162 µM,0.498
same,relative viability,PC-3 [JPC-3]; first compound 1 µM,0.449
same,relative viability,NCI-H1355; first compound 0.01 µM,0.446
same,relative viability,NCI-H1355; first compound 0.03162 µM,0.443
same,relative viability,NCI-H1355; first compound 0.1 µM,0.468
same,relative viability,NCI-H1355; first compound 0.3162 µM,0.501
same,relative viability,NCI-H1355; first compound 1 µM,0.413
same,relative viability,NCI-H2342; first compound 0.01 µM,0.578
same,relative viability,NCI-H2342; first compound 0.03162 µM,0.582
same,relative viability,NCI-H2342; first compound 0.1 µM,0.56
same,relative viability,NCI-H2342; first compound 0.3162 µM,0.664
same,relative viability,NCI-H2342; first compound 1 µM,0.648
same,relative viability,NCI-H2087; first compound 0.01 µM,0.42
same,relative viability,NCI-H2087; first compound 0.03162 µM,0.537
same,relative viability,NCI-H2087; first compound 0.1 µM,0.536
same,relative viability,NCI-H2087; first compound 0.3162 µM,0.522
same,relative viability,NCI-H2087; first compound 1 µM,0.429
same,relative viability,NCI-H1651; first compound 0.01 µM,0.305
same,relative viability,NCI-H1651; first compound 0.03162 µM,0.383
same,relative viability,NCI-H1651; first compound 0.1 µM,0.347
same,relative viability,NCI-H1651; first compound 0.3162 µM,0.316
same,relative viability,NCI-H1651; first compound 1 µM,0.257
same,relative viability,NCI-H838; first compound 0.01 µM,0.498
same,relative viability,NCI-H838; first compound 0.03162 µM,0.562
same,relative viability,NCI-H838; first compound 0.1 µM,0.597
same,relative viability,NCI-H838; first compound 0.3162 µM,0.538
same,relative viability,NCI-H838; first compound 1 µM,0.291
same,relative viability,NCI-H661; first compound 0.01 µM,0.289
same,relative viability,NCI-H661; first compound 0.03162 µM,0.297
same,relative viability,NCI-H661; first compound 0.1 µM,0.27
same,relative viability,NCI-H661; first compound 0.3162 µM,0.291
same,relative viability,NCI-H661; first compound 1 µM,0.278
same,relative viability,LC-2-ad; first compound 0.01 µM,0.625
same,relative viability,LC-2-ad; first compound 0.03162 µM,0.55
same,relative viability,LC-2-ad; first compound 0.1 µM,0.586
same,relative viability,LC-2-ad; first compound 0.3162 µM,0.629
same,relative viability,LC-2-ad; first compound 1 µM,0.483
same,relative viability,SK-MES-1; first compound 0.01 µM,0.706
same,relative viability,SK-MES-1; first compound 0.03162 µM,0.673
same,relative viability,SK-MES-1; first compound 0.1 µM,0.637
same,relative viability,SK-MES-1; first compound 0.3162 µM,0.641
same,relative viability,SK-MES-1; first compound 1 µM,0.483
same,relative viability,NCI-H1944; first compound 0.01 µM,0.204
same,relative viability,NCI-H1944; first compound 0.03162 µM,0.195
same,relative viability,NCI-H1944; first compound 0.1 µM,0.194
same,relative viability,NCI-H1944; first compound 0.3162 µM,0.202
same,relative viability,NCI-H1944; first compound 1 µM,0.16
same,relative viability,HCC-78; first compound 0.01 µM,0.646
same,relative viability,HCC-78; first compound 0.03162 µM,0.732
same,relative viability,HCC-78; first compound 0.1 µM,0.663
same,relative viability,HCC-78; first compound 0.3162 µM,0.805
same,relative viability,HCC-78; first compound 1 µM,0.631
same,relative viability,NCI-H650; first compound 0.01 µM,0.417
same,relative viability,NCI-H650; first compound 0.03162 µM,0.442
same,relative viability,NCI-H650; first compound 0.1 µM,0.449
same,relative viability,NCI-H650; first compound 0.3162 µM,0.47
same,relative viability,NCI-H650; first compound 1 µM,0.451
same,relative viability,NCI-H1666; first compound 0.01 µM,0.582
same,relative viability,NCI-H1666; first compound 0.03162 µM,0.562
same,relative viability,NCI-H1666; first compound 0.1 µM,0.574
same,relative viability,NCI-H1666; first compound 0.3162 µM,0.644
same,relative viability,NCI-H1666; first compound 1 µM,0.507
same,relative viability,LCLC-97TM1; first compound 0.01 µM,0.465
same,relative viability,LCLC-97TM1; first compound 0.03162 µM,0.42
same,relative viability,LCLC-97TM1; first compound 0.1 µM,0.514
same,relative viability,LCLC-97TM1; first compound 0.3162 µM,0.428
same,relative viability,LCLC-97TM1; first compound 1 µM,0.506
same,relative viability,NCI-H1975; first compound 0.01 µM,0.429
same,relative viability,NCI-H1975; first compound 0.03162 µM,0.398
same,relative viability,NCI-H1975; first compound 0.1 µM,0.481
same,relative viability,NCI-H1975; first compound 0.3162 µM,0.408
same,relative viability,NCI-H1975; first compound 1 µM,0.401
same,relative viability,LU99A; first compound 0.01 µM,0.764
same,relative viability,LU99A; first compound 0.03162 µM,0.841
same,relative viability,LU99A; first compound 0.1 µM,1.04
same,relative viability,LU99A; first compound 0.3162 µM,0.772
same,relative viability,LU99A; first compound 1 µM,0.756
same,relative viability,LXF-289; first compound 0.01 µM,0.506
same,relative viability,LXF-289; first compound 0.03162 µM,0.542
same,relative viability,LXF-289; first compound 0.1 µM,0.547
same,relative viability,LXF-289; first compound 0.3162 µM,0.53
same,relative viability,LXF-289; first compound 1 µM,0.424
same,relative viability,NCI-H358; first compound 0.01 µM,0.358
same,relative viability,NCI-H358; first compound 0.03162 µM,0.302
same,relative viability,NCI-H358; first compound 0.1 µM,0.358
same,relative viability,NCI-H358; first compound 0.3162 µM,0.472
same,relative viability,NCI-H358; first compound 1 µM,0.331
same,relative viability,NCI-H596; first compound 0.01 µM,0.66
same,relative viability,NCI-H596; first compound 0.03162 µM,0.727
same,relative viability,NCI-H596; first compound 0.1 µM,0.899
same,relative viability,NCI-H596; first compound 0.3162 µM,0.832
same,relative viability,NCI-H596; first compound 1 µM,0.621
